Data set [1] deals with RSV-A2. Nature of the data set: RSV-A2 infection of A549 cells at 1 MOI, Hep-2 plaque assay titers. It counts as cell-based, Respiratory Syncytial Virus (RSV). To be noted: 5 μM peptide. The procedure:
In this study A549 cells were plated in a 24 well plate at 30,000 cells/well. The following day, the cells were treated with 5 μM of the indicated stapled SAHF peptide or volume-equivalent DMSO vehicle, followed by RSV-A2 infection at 1 MOI. The cells were infected for 2 h, and the infection medium replaced with 400 μl of DMEM containing 5% FBS and 5 μM of the indicated stapled SAHF peptide. Cells were harvested along with the supernantant 24 h post infection, vortexed for 10 sec, and the supernatant collected, leaving the cell pellet behind. Hep-2 cells were plated on a 24 well plate at 60,000 cells/well the day before use. Plaque assay was performed on Hep-2 cells using the collected supernatant and titers determined at 5 days post infection of Hep-2 cells. The results of this analysis are shown in FIG. 14 in which titers are shown as log 10 pfu/ml and the values represent the mean+/−SEM for two independent experiments (***p<0.001; ****p<0.0001).

Data set [2] concerns RSV-A2. Nature of the data set: Infection of A549 cells at 0.1 MOI, Hep-2 plaque assay titers: RSV-A2. Type of data set: cell-based, Respiratory Syncytial Virus (RSV). To be noted: 5 μM peptide. The procedure: (§1) In this study A549 cells were plated in a 24 well plate at 30,000 cells/well. The following day, the cells were treated with 5 μM of the indicated stapled SAHF peptide or volume-equivalent DMSO vehicle, followed by infection with RSV-A2, RSV 2-20, or RSV-rA2Line19F within 30 minutes at 0.1 MOI. The supernatant was collected 24 h post infection, and applied to Hep-2 cells that were plated the day prior on a 24 well plate at 60,000 cells/well. Plaque assays were performed on Hep-2 cells using the collected supernatant and titers determined at 5 days post infection of Hep-2 cells. The results of this analysis are shown in FIGS. 15A, 15B and 15C in which titers are shown as pfu/ml and the values represent the mean+/−SEM for two independent experiments (***p<0.001; ****p<0.0001).

The test system of a further data set is RSV 2-20. The data set can be described thus: Infection of A549 cells at 0.1 MOI, Hep-2 plaque assay titers: RSV 2-20. Type of data set: cell-based, Respiratory Syncytial Virus (RSV). To be noted: 5 μM peptide. The procedure:
as §1

The next data set deals with RSV-rA2Line19F. The data set can be described thus: Infection of A549 cells at 0.1 MOI, Hep-2 plaque assay titers: RSV-rA2Line19F. It counts as cell-based, Respiratory Syncytial Virus (RSV). To be noted: 5 μM peptide. On the procedure:
as §1

The subject of another data set is RgRSV. The data set can be described thus: Intranasal RgRSV infection of BALB/c mice after intranasal peptide. Type of data set: in vivo. On the procedure:
One hour post treatment, three groups of mice were inoculated with a single dose of RgRSV at 1×10^6 pfu/mouse, with the fourth group receiving a mock inoculation. Mice were sacrificed at 24 hours post infection and the noses harvested, sectioned, stained with DAPI and imaged with an Olympus fluorescent microscope (FIG. 16A; original magnification 20×). Image J analysis was performed on the acquired images (FIG. 16B) and average GFP positive (green) and DAPI positive (blue) cells were calculated from eight images (4 sections) per mouse (bars represent percent GFP positive of total DAPI-positive cells present in the images and error bars represent mean+/−SEM. *, p<0.001). FIG. 16C depicts the results of hematoxylin and eosin staining of the nose sections (original magnification 20×, insets 100×) In FIG. 16C black arrows highlight thickened mucosa.

Data set [3] deals with RSV-A2. Nature of the data set: RSV-A2 lung infection of BALB/c mice after prophylactic intranasal peptide. Type of data set: in vivo. On the procedure:
One hour post treatment, three groups of mice were inoculated with a single dose of RSV-A2 at 1×10^6 pfu/mouse. Peptide dosing and viral inoculation was repeated 16 hours post-infection. The fourth group was treated with volume-equivalent vehicle and mock-infected. Two mice from each group were sacrificed 4 days after the second infection and left lung lobes harvested after 1% paraformaldehyde perfusion, followed by cryopreservation in OCT. Sections (5 μm) were treated with 1:1000 dilution of rabbit anti-RSV polyclonal antibody (Millipore) overnight followed by anti-rabbit antibody conjugated to Alexa Fluor 555 (1:400) (red) (Molecular Probes) for 1 h. Sections were washed and mounted with medium containing DAPI (blue) and viewed with an Olympus fluorescent microscope (FIG. 17A; original magnification 20×). Image J analysis was performed on the acquired images and the percentage RSV-positive cells (red) of total DAPI-positive cells (blue) determined from 8 images (4 sections) per mice (FIG. 17B; .error bars represent mean+/−SEM; *, p<0.0001). Four days after the second infection, bronchoalveolar lavage (BAL) was performed on one mouse from each group and BAL supernatant used to determine the viral titers by plaque assay on Hep-2 cells (FIG. 17C; error bars represent mean+/−SEM of plaques counted per in vivo specimen; *, p<0.05). Also at four days after the second infection, cranial and caudal lobes of the right lung from two mice per group were snap frozen on dry ice. A lung homogenate was generated from the cranial lobe and supernatant subjected to viral titer determination (log 10 pfu/ml) (FIG. 17D; error bars represent mean+/−SEM; *, p<0.05). Total RNA was isolated from the caudal lobe of the right lung and quatitative RT-PCR was performed for the RSV-N gene. The results of this analysis are presented in FIG. 17E in which the bar graphs represent the RSV-N gene expression normalized to the mock-infected tissue.

A short description of data set [4]: Circular dichroism (CD) alpha-helicity. Type of data set: physicochemical. As to conditions: aqueous solution (pH 7, 35° C.). The procedure:
Compounds are dissolved in an aqueous solution (e.g. 5 mM potassium phosphate solution at pH 7, or distilled H2O, to concentrations of 25-50 μM). Circular dichroism (CD) spectra are obtained on a spectropolarimeter (e.g., Jasco J-710, Aviv) using standard measurement parameters (e.g. temperature, 20° C.; wavelength, 190-260 nm; step resolution, 0.5 nm; speed, 20 nm/sec; accumulations, 10; response, 1 sec; bandwidth, 1 nm; path length, 0.1 cm). The α-helical content of each peptide is calculated by dividing the mean residue ellipticity by the reported value for a model helical decapeptide (Yang et al., Methods Enzymol. 130:208 (1986)).
To document secondary structure improvements of hydrocarbon-stapled peptides, circular dichroism (CD) spectra was recorded and analyzed on a Model 410 Aviv Biomedical spectrometer (Walensky, supra; Bird, supra). […] The target peptide concentration for CD studies is 25-50 μM in 50 mM potassium phosphate (pH 7.5) or Milli-Q deionized water, and exact concentrations are confirmed by quantitative AAA of two CD sample dilutions. […] After conversion to mean residue ellipticity, percent α-helicity can be calculated using the equation, % helicity=100×[θ]222/max[θ]222, where max[θ]222=−40,000×[1−(2.5/number of amino acid residues)]. […]
(In general: Circular dichroism is the unequal absorption of left and right circularly polarised light.)

“Also recorded” adds a separate entry of the source. Bridges are numbered along the chain shown (N, C = ends). Where no end group is shown, it is not given here. [ ]: non-standard residue; d: D form. R8 = C=CCCCCCC[C@@](C)(N)C(=O)O; S5 = C=CCCC[C@](C)(N)C(=O)O

Consider “FD8SISQVNXKINQSLAFI8KSDELLXNVNAGKST (FDXSISQVNXKINQSLAFIXKSDELLXNVNAGKST; two hydrocarbon staples; MOD_RES (3)..(3) Any amino acid; (3)..(10) Crosslink between residues; MOD_RES (10)..(10) Any amino acid; MOD_RES (20)..(20) Any amino acid; (20)..(27) Crosslink between residues; MOD_RES (27)..(27) Any amino acid) [SAHF-H, J]”, for which, in the data set with RSV-A2 [1], the “RSV-A2 infection (viral titers)” value is listed as “inhibit RSV-A2 infection of A549 cells”. The “viral infection by RSV-A2 (titers)” value with RSV-A2 [2] is recorded as “prevents viral infection”. The “viral infection by RSV 2-20 (titers)” value in the data set with RSV 2-20 was “prevents viral infection”. Further, in the data set on RSV-rA2Line19F, the “viral infection by RSV-rA2 Line 19F (titers)” value is “prevents viral infection”. For the same substance, the “intranasal RgRSV infection (percent GFP positive cells in nose sections)” value in the data set with RgRSV (125 μM intranasally one hour before RgRSV, 24 hours post infection) is given as “blocks intranasal RgRSV infection”. Moreover, in the data set on RgRSV (RgRSV-infected, 125 μM intranasally), the “inflammation in nose sections (hematoxylin and eosin staining)” value is listed as “comparatively decreased inflammatory cells”. Also, in the data set on RSV-A2 [3] (125 μM intranasally, dosing and inoculation repeated at 16 hours, 4 days after second infection), the “RSV-A2 lung infection, by each measure (RSV-positive cells, BAL and lung homogenate titers, RSV-N gene)” value is listed as “inhibited RSV infection; also recorded: inhibits RSV-A2 lung infection”.

For “FDA8ISQVNEXINQSLAFI8KSDELLXNVNAGKST (Ac-FDA[R8]ISQVNE[S5]INQSLAFI[R8]KSDELL[S5]NVNAGKST; staple 4-11, 20-27) [SAHF-I, J]”, in the data set on RSV-A2 [1], the “RSV-A2 infection (viral titers)” value was “inhibit RSV-A2 infection of A549 cells”.

In the case of “FDASISQVNEKINQSLAFIRKSDELLHNVNAGKST [RSV HR2 (488-522)WT, reference compound]”, the “percent α-helicity” value in data set [4] is roughly 23%. The “RSV-N gene expression in lung (quantitative RT-PCR)” value in the data set on RSV-A2 [3] (caudal lobe of right lung) is recorded as “no observed effect”.
